Source: patent US9549921B2, “Heterocyclic compounds and methods of use thereof for the treatment of hepatitis C” (priority 2014, dated 2017)
Read-outs that look alike come from different tables or passages of the source.

Columns and labels:
[1] = test system: HCV replicon genotype 1a; experiment: HCV replicon assay, genotype 1a (cell ELISA for NS3/4A); assay type: cell-based, hepatitis C virus
Outline: (§1)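 Readout is NS3/4A protein level from an antibody-based cell ELISA, serving as an indirect measure of replicon RNA; IC50 fitted with a four-parameter function relative to DMSO control. Replicon cells, kept under G418 beforehand, were plated with serial compound dilutions minus G418 for 96 hours.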

[2] = test system: HCV replicon genotype 1b; experiment: HCV replicon assay, genotype 1b (cell ELISA for NS3/4A); assay type: cell-based, hepatitis C virus
Outline: as §1

[3] = Hepatitis C virus, 96 h, read-out: 1a IC50 (nM), HCV genotype 1a replicon cells, 96 hours incubation, NS3/4A ELISA readout, % of DMSO control
[4] = Hepatitis C virus, 96 h, read-out: 1b IC50 (nM), HCV genotype 1b replicon cells, 96 hours incubation, NS3/4A ELISA readout, % of DMSO control
[5] = read-out: 1a IC50, HCV genotype 1a replicon cells, 96 hours incubation, NS3/4A ELISA readout, % of DMSO control
[6] = read-out: 1b IC50, HCV genotype 1b replicon cells, 96 hours incubation, NS3/4A ELISA readout, % of DMSO control

`CNC(=O)c1c(-c2ccc(F)cc2)oc2cc(N(C)S(C)(=O)=O)c([C@H]3CCCN(C(=O)c4nc5ccc(F)cc5[nH]4)C3)cc12` [Example 92, 5-{(3R)-1-[(6-fluoro-1H-benzimidazol-2-yl)carbonyl]piperidin-3-yl}-2-(4-fluorophenyl)-N-methyl-6-[methyl(methylsulfonyl)amino]-1-benzofuran-3-carboxamide] gave an IC50 [1, 3] of 274 nM and an IC50 [2, 4] of 97 nM.

In the case of `CNC(=O)c1c(-c2ccc(F)cc2)oc2cc(N(C)S(C)(=O)=O)c([C@@H]3CCCN(c4nc5ccccc5o4)C3)cc12` (single isomer, unassigned) [Example 48, 5-(1-(benzo[d]oxazol-2-yl)piperidin-3-yl)-2-(4-fluorophenyl)-N-methyl-6-(N-methylmethylsulfonamido)benzofuran-3-carboxamide], the IC50 [1, 5] is reported as 40.2 nM and the IC50 [2, 6] is reported as 24.8 nM.

With `CNC(=O)c1c(-c2ccc(F)cc2)oc2cc(N(C)S(C)(=O)=O)c([C@@H]3CCCN(C(=O)c4cc5ccccc5[nH]4)C3)cc12` (single isomer, unassigned) [Example 21, 5-(1-(1H-indole-2-carbonyl)piperidin-3-yl)-2-(4-fluorophenyl)-N-methyl-6-(N-methylmethylsulfonamido)benzofuran-3-carboxamide] the IC50 [1, 5] was 16.2 nM and the IC50 [2, 4] was 9.96 nM.

`CNC(=O)c1c(-c2ccc(F)cc2)oc2cc(N(C)S(C)(=O)=O)c([C@H]3CCCN(C(=O)Cc4ccc5nccnc5c4)C3)cc12` [Example 95, 2-(4-fluorophenyl)-N-methyl-6-[methyl(methylsulfonyl)amino]-5-[(3R)-1-(quinoxalin-6-ylacetyl)piperidin-3-yl]-1-benzofuran-3-carboxamide] showed an IC50 [1, 3] of 176 nM and an IC50 [2, 4] of 106 nM.

Work on `CNC(=O)c1c(-c2ccc(F)cc2)oc2cc(N(C)S(C)(=O)=O)c([C@@H]3CCCN(S(=O)(=O)Cc4ccccc4)C3)cc12` [Example 121, 5-[(3S)-1-(benzylsulfonyl)piperidin-3-yl]-2-(4-fluorophenyl)-N-methyl-6-[methyl(methylsulfonyl)amino]-1-benzofuran-3-carboxamide] yielded an IC50 [1, 3] of 47.5 nM and an IC50 [2, 4] of 23.8 nM.

With `CNC(=O)c1c(-c2ccc(F)cc2)oc2cc(N(C)S(C)(=O)=O)c([C@H]3CCCN(C(=O)c4c[nH]c5cc(F)ccc45)C3)cc12` [Example 102, 5-{(3R)-1-[(6-fluoro-1H-indol-3-yl)carbonyl]piperidin-3-yl}-2-(4-fluorophenyl)-N-methyl-6-[methyl(methylsulfonyl)amino]-1-benzofuran-3-carboxamide] the IC50 [1, 3] was 345 nM and the IC50 [2, 4] was 295 nM.

`CNC(=O)c1c(-c2ccc(F)cc2)oc2cc(N(C)S(C)(=O)=O)c([C@H]3CCCN(C(=O)c4cn5cc(Cl)cc(N)c5n4)C3)cc12` [Example 104, 5-{(3R)-1-[(8-amino-6-chloroimidazo[1,2-a]pyridin-2-yl)carbonyl]piperidin-3-yl}-2-(4-fluorophenyl)-N-methyl-6-[methyl(methylsulfonyl)amino]-1-benzofuran-3-carboxamide] gave an IC50 [1, 3] of 284 nM and an IC50 [2, 4] of 136 nM.

Molecule `CNC(=O)c1c(-c2ccc(F)cc2)oc2cc(N(C)S(C)(=O)=O)c([C@@H]3CCCN(S(=O)(=O)c4ccccc4C)C3)cc12` [Example 111, 2-(4-fluorophenyl)-N-methyl-6-[methyl(methylsulfonyl)amino]-5-{(3S)-1-[(2-methylphenyl)sulfonyl]piperidin-3-yl}-1-benzofuran-3-carboxamide] has an IC50 [1, 3] of 68.1 nM and an IC50 [2, 4] of 17.2 nM.

`CNC(=O)c1c(-c2ccc(F)cc2)oc2cc(N(C)S(C)(=O)=O)c([C@@H]3CCCN(C(=O)CC4CCCCC4)C3)cc12` [Example 68, 5-[1-(cyclohexylacetyl)piperidin-3-yl]-2-(4-fluorophenyl)-N-methyl-6-[methyl(methylsulfonyl)amino]-1-benzofuran-3-carboxamide] gave an IC50 [1, 3] of 98 nM and an IC50 [2, 4] of 89 nM.

With `CNC(=O)c1c(-c2ccc(F)cc2)oc2cc(N(C)S(C)(=O)=O)c([C@H]3CCCN(C(=O)c4n[nH]c5cc(Br)ccc45)C3)cc12` [Example 99, 5-{(3R)-1-[(6-bromo-1H-indazol-3-yl)carbonyl]piperidin-3-yl}-2-(4-fluorophenyl)-N-methyl-6-[methyl(methylsulfonyl)amino]-1-benzofuran-3-carboxamide] the IC50 [1, 3] was 137 nM and the IC50 [2, 4] was 66.7 nM.

`CNC(=O)c1c(-c2ccc(F)cc2)oc2cc(N(C)S(C)(=O)=O)c([C@H]3CCCN(C(=O)c4cn(C)c5ccccc45)C3)cc12` [Example 101, 2-(4-fluorophenyl)-N-methyl-5-{(3R)-1-[(1-methyl-1H-indol-3-yl)carbonyl]piperidin-3-yl}-6-[methyl(methylsulfonyl)amino]-1-benzofuran-3-carboxamide] showed an IC50 [1, 3] of 103 nM and an IC50 [2, 4] of 55.9 nM.

Molecule `CNC(=O)c1c(-c2ccc(F)cc2)oc2cc(N(C)S(C)(=O)=O)c([C@H]3CCCN(C(=O)C(c4ccccc4)c4ccccc4)C3)cc12` [Example 108, 5-[(3R)-1-(diphenylacetyl)piperidin-3-yl]-2-(4-fluorophenyl)-N-methyl-6-[methyl(methylsulfonyl)amino]-1-benzofuran-3-carboxamide] has an IC50 [1, 3] of 266 nM and an IC50 [2, 4] of 53 nM.

`CNC(=O)c1c(-c2ccc(F)cc2)oc2cc(N(C)S(C)(=O)=O)c([C@H]3CCCN(S(=O)(=O)Cc4ccccc4)C3)cc12` [Example 137, 5-[(3R)-1-(benzylsulfonyl)piperidin-3-yl]-2-(4-fluorophenyl)-N-methyl-6-[methyl(methylsulfonyl)amino]-1-benzofuran-3-carboxamide] was tested, and the IC50 [1, 3] was 2.15 nM and the IC50 [2, 4] was 3.04 nM.

For `CNC(=O)c1c(-c2ccc(F)cc2)oc2cc(N(C)S(C)(=O)=O)c([C@@H]3CCCN(C(=O)Cc4ccc(F)cc4)C3)cc12` (single isomer, unassigned) [Example 18, 2-(4-fluorophenyl)-5-(1-(2-(4-fluorophenyl)acetyl)piperidin-3-yl)-N-methyl-6-(N-methylmethylsulfonamido)benzofuran-3-carboxamide], the IC50 [1, 5] was 188 nM and the IC50 [2, 6] was 72.2 nM.

In the case of `CNC(=O)c1c(-c2ccc(F)cc2)oc2cc(N(C)S(C)(=O)=O)c([C@H]3CCCN(C(=O)c4[nH]c5c(F)cccc5c4C)C3)cc12` [Example 38, (R)-5-(1-(7-fluoro-3-methyl-1H-indole-2-carbonyl)piperidin-3-yl)-2-(4-fluorophenyl)-N-methyl-6-(N-methylmethylsulfonamido)benzofuran-3-carboxamide], the IC50 [1, 3] is reported as 277 nM and the IC50 [2, 4] is reported as 116 nM.

For `CNC(=O)c1c(-c2ccc(F)cc2)oc2cc(N(C)S(C)(=O)=O)c([C@@H]3CCCN(c4nc5ccccc5[nH]4)C3)cc12` (single isomer, unassigned) [Example 45, 5-(1-(1H-benzo[d]imidazol-2-yl)piperidin-3-yl)-2-(4-fluorophenyl)-N-methyl-6-(N-methylmethylsulfonamido)benzofuran-3-carboxamide], the IC50 [1, 5] was 225 nM and the IC50 [2, 6] was 70.9 nM.

`CNC(=O)c1c(-c2ccc(F)cc2)oc2cc(N(C)S(C)(=O)=O)c(C3CC(c4nc5c(F)cccc5o4)CN(C)C3)cc12` (stereo not shown) [Example 1, 5-(5-(4-fluorobenzo[d]oxazol-2-yl)-1-methylpiperidin-3-yl)-2-(4-fluorophenyl)-N-methyl-6-(N-methylmethylsulfonamido)benzofuran-3-carboxamide] showed an IC50 [1, 3] of 56.9 nM and an IC50 [2, 4] of 34.3 nM.
